In patent publication US11999699B2, “Substituted pyrazole amides” (GRUENENTHAL GMBH, priority 2021, dated 2024) one finds IC50 data, which are given here for 29 compounds.

Some results are limits rather than exact numbers.

In this test the target is T1, human NaV1.8 (Homo sapiens, UniProt Q9Y5Y9).
T1 construct: The following NaV1.8 recombinant cell line was used for recordings: HEK-NaV1.8 (NM 006514.1); expressed in transfected cells; host or cells: HEK (recombinant cell line HEK-NaV1.8)
T1 sequence (Q9Y5Y9 whole entry): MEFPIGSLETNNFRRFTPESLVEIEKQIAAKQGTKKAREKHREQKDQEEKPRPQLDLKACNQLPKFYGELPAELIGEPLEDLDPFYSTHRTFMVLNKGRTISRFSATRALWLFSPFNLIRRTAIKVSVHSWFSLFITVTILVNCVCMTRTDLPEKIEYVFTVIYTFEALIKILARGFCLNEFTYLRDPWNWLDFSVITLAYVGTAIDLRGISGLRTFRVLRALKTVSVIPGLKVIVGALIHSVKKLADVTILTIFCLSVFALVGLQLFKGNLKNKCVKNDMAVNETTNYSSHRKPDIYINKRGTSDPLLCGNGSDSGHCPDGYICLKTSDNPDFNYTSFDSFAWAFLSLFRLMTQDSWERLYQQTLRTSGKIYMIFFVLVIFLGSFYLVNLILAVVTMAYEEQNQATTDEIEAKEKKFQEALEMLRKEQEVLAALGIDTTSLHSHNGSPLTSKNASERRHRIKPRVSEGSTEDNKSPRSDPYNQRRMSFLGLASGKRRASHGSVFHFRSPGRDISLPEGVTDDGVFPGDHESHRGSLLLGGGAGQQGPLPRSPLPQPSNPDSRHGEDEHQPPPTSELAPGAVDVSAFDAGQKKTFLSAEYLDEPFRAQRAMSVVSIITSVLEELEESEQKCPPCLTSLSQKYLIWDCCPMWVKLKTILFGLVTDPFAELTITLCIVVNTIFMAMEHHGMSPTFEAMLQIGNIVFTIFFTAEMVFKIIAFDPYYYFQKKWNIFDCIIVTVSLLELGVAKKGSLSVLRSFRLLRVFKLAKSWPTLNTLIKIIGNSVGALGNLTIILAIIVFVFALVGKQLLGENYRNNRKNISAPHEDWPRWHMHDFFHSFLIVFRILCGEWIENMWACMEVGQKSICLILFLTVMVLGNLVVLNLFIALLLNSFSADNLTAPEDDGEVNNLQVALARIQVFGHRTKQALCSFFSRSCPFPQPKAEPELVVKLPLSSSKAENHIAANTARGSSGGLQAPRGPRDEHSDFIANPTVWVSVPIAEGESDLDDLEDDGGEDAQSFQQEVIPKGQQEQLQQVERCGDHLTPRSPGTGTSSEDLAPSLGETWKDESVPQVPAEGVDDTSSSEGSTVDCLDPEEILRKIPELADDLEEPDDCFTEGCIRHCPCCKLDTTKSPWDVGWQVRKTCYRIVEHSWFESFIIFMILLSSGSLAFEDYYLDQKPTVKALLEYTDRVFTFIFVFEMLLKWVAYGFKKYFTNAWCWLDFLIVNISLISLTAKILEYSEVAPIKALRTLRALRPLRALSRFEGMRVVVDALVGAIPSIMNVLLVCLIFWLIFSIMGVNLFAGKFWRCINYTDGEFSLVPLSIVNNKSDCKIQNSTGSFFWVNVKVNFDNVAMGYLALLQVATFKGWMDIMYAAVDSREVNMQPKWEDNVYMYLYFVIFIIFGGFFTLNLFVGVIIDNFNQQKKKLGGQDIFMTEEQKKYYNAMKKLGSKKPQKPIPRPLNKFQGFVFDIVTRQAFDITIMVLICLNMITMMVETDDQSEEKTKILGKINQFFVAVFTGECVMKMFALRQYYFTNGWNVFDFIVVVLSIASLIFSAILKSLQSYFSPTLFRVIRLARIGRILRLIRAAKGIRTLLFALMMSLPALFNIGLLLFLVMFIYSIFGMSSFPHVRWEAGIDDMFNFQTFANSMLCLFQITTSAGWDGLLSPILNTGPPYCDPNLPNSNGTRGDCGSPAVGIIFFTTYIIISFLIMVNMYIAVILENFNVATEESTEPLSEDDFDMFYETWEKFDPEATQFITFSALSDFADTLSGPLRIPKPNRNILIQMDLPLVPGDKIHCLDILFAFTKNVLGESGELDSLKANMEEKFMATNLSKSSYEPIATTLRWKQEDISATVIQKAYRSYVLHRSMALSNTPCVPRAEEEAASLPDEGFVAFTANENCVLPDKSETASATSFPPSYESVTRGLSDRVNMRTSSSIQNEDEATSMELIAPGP
T1 sequence (Q9NY72 23-215 partner): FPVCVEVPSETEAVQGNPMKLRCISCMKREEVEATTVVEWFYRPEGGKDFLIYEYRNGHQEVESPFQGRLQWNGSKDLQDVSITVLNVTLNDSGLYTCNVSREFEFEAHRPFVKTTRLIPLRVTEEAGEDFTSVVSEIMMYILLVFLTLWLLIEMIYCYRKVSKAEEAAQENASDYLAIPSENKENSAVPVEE
As to the kind of experiment: Electrophysiology: automated whole-cell voltage-clamp (patch clamp, Qube384) recordings of sodium currents in HEK-NaV1.8 cells. The test is classed as cell-based. As to conditions: potency data either taken from inactivated or resting state, read-out: Potency category (human NaV1.8 IC50). As for the experimental part: Electrophysiology: Voltage-Clamp Recordings
The following NaV1.8 recombinant cell line was used for recordings: HEK-NaV1.8 (NM 006514.1) with in (NM 018400.3).
Sodium currents were measured using the patch clamp technique in the whole-cell configuration using the Qube384 (Sophion A/S, Copenhagen, Denmark) automated voltage clamp platform. “Multi hole” plates were used for the cell line expressing NaV1.8 while “single hole” plates were used for the recombinant cell lines expressing the other subtypes. Appropriate filters (for minimum seal resistance and minimum current size) and series resistance compensation (for high quality sodium channel recordings) were applied. Data was collected at ambient room temperature.
The recording extracellular solution contained (in mM): NaCl 145 mM, KCl 4 mM, CaCl2 2 mM, MgCl2 1 mM, HEPES 10 mM, Glucose 10 mM, pH 7.4 (NaOH). The intracellular recording solution contained (in mM): CsF 120 mM, CsCl 20 mM, NaCl 10 mM, EGTA 10 mM, HEPES 10 mM, pH 7.2 (CsOH). Currents were recorded at 25 kHz sampling frequency and filtered at 5 kHz. Series resistance compensation was applied at 65%.
Vehicle (VEH) is the control condition where cells are exposed to 0.3% DMSO without compound. All runs include VEH controls being exposed to the same voltage protocols to assess non-compound related phenomena such as run down and then used to isolate compound dependent effects on currents.
To check for state-dependence inhibition, the following voltage-sequence was applied every 20 seconds:
From a resting membrane potential of −120 mV, the first test pulse (P1; 20 ms to −10 mV) was applied to check for channels in the Resting State followed by a brief recovery (20 ms to −120 mV), then holding the membrane voltage to V112 (4 seconds at voltage to obtain half the channel at Rest and half Inactivated) with a subsequent second test pulse (P2; 20 ms to −10 mV) to check for channels in the Inactivated State, followed by another brief recovery (20 ms to −120 mV) and a final third test pulse (P3; 20 ms to −10 mV) to check for recovered channels.
To check for frequency-dependent inhibition, a 10 Hz protocol and a 20 Hz protocol were applied; namely,
From a resting membrane potential of −120 mV, 40-pulses (10 ms to −10 mV) was applied at 10 Hz (at 100 ms between pulses) and then at 20 Hz (at 50 ms between pulses).
Each parameter was recorded (P1, P2, P3, P40 from 10 Hz and P40 from 20 Hz) during a control period (lasting 5 minutes) when establishing the baseline and during compound period (lasting ˜12 minutes) when test compound (or vehicle) was applied. For each parameter, the value at the end of the compound period was normalized to the vehicle baseline; as follows
To adjust for any variance in the Na^+ current signal during the compound period (owing to cumulative inactivation independent of compound or shifts in biophysics over time), a dedicated segment of the recording wells in each 384 plate were dedicated to having only vehicle exposure. These vehicle-only recordings were used to correct for any apparent “run-up” or “run-down” in the experiment.
The adjusted inhibition was calculated as follows: […]
Percent inhibition was determined and IC50 values were calculated using a 4 parameter logistic model within XLFit Software (IDBS, Boston MA):
[formula] where A and B are the maximal and minimum inhibition respectively, C is the IC50 concentration and D is the (Hill) slope.
The potency data was either taken from inactivated or resting state.
Background: Patch clamp records ionic current or voltage across a cell membrane.
One may read the IC50 as the concentration that gives 50% inhibition. As to `CC(F)(F)c1nn(CC2CC(F)(F)C2)c(C(=O)Nc2ccnc(C(N)=O)c2)c1C(F)(F)F` [SC-180, 4-(1-((3,3-difluorocyclobutyl)methyl)-3-(1,1-difluoroethyl)-4-(trifluoromethyl)-1H-pyrazole-5-carboxamido)picolinamide], the 50% inhibitory concentration (IC50) was at most 100 nM.
Next, `Cc1c(C(F)(F)F)nn(CC2CCC(F)(F)C2)c1C(=O)Nc1ccnc(C(N)=O)c1` (single isomer, unassigned) [SC-118a]: at most 100 nM; `Cc1nn(C[C@H]2CCC(F)(F)C2)c(C(=O)Nc2cncc(C(N)=O)c2)c1C(F)(F)F` [SC-247S]: 100 to 1000 nM; `Cc1c(C(C)(F)F)nn(CC2(C)CCC(F)(F)C2)c1C(=O)Nc1ccnc(C(N)=O)c1` (single isomer, unassigned) [SC-214b]: at most 100 nM.
With `Cc1c([C@@H](C)C(F)(F)F)nn(CC2CC(F)(F)C2)c1C(=O)Nc1ccnc(C(N)=O)c1` [SC-188a], the IC50 is 100 to 1000 nM.
Next, `Cc1c(C(F)(F)F)nn(CC2CCC(F)(F)CC2)c1C(=O)Nc1cccc(S(N)(=O)=O)n1` [SC-243, 1-((4,4-difluorocyclohexyl)methyl)-4-methyl-N-(6-sulfamoylpyridin-2-yl)-3-(trifluoromethyl)-1H-pyrazole-5-carboxamide]: 100 to 1000 nM; `CS(=O)(=O)c1cccc(NC(=O)c2c(C(F)(F)F)cnn2CC2CCC(F)(F)CC2)c1F` [SC-16, 2-[(4,4-difluorocyclohexyl)methyl]-N-(2-fluoro-3-methylsulfonylphenyl)-4-(trifluoromethyl)pyrazole-3-carboxamide]: 1000 to 10000 nM; `CCc1nn(CC2CCC(F)(F)C2)c(C(=O)Nc2ccnc(S(C)(=O)=O)c2)c1C(F)(F)F` (centres unmarked) [SC-297, 1-((3,3-difluorocyclopentyl)methyl)-3-ethyl-N-(2-(methylsulfonyl)pyridin-4-yl)-4-(trifluoromethyl)-1H-pyrazole-5-carboxamide]: at most 100 nM.
In the case of `CS(=O)(=O)c1cc(NC(=O)c2c(C(F)(F)F)c(C3CC3)nn2C[C@@H]2CCO[C@@H]2C(F)(F)F)ccn1` (single isomer, unassigned) [SC-150a], the 50% inhibitory concentration (IC50) is at most 100 nM.
Next, `O=C(Nc1cc[nH]c(=O)c1)c1c(C(F)(F)F)cnn1CC1CCCCC1` [SC-30, 1-(cyclohexylmethyl)-N-(2-oxo-1,2-dihydropyridin-4-yl)-4-(trifluoromethyl)-1H-pyrazole-5-carboxamide]: 100 to 1000 nM; `CC(C1CCCCC1)n1ncc(C(F)(F)F)c1C(=O)Nc1ccnc(O)c1` (centres unmarked) [SC-32, 2-(1-cyclohexylethyl)-N-(2-hydroxypyridin-4-yl)-4-(trifluoromethyl)pyrazole-3-carboxamide]: 1000 to 10000 nM.
In the case of `Cc1nn(CC2CCC(F)(F)CC2)c(C(=O)Nc2ccnc(C(N)=O)c2C)c1C(F)(F)F` [SC-294, 4-(1-((4,4-difluorocyclohexyl)methyl)-3-methyl-4-(trifluoromethyl)-1H-pyrazole-5-carboxamido)-3-methylpicolinamide] it was 1000 to 10000 nM.
As to `Cc1c(C(C)(F)F)nn(CC2(C(F)F)CC(F)(F)C2)c1C(=O)Nc1ccnc(C(N)=O)c1` [SC-311, 4-(3-(1,1-difluoroethyl)-1-((1-(difluoromethyl)-3,3-difluorocyclobutyl)methyl)-4-methyl-1H-pyrazole-5-carboxamido)picolinamide], the concentration for half-maximal inhibition (IC50) was at most 100 nM.
Next, `Cc1nn(CC2CCCCC2)c(C(=O)Nc2cccc(S(C)(=O)=O)c2)c1C` [SC-06, 2-(cyclohexylmethyl)-4,5-dimethyl-N-(3-methylsulfonylphenyl)pyrazole-3-carboxamide]: 100 to 1000 nM.
In the case of `Cc1c([C@@H](C)C(F)F)nn(CC2CC(F)(F)C2)c1C(=O)Nc1ccnc(C(N)=O)c1` [SC-192a] it was 100 to 1000 nM.
In the case of `NS(=O)(=O)c1cccc(NC(=O)c2c(C(F)(F)F)cnn2CC2CCC(F)(F)CC2)c1` [SC-43, 2-[(4,4-difluorocyclohexyl)methyl]-N-(3-sulfamoylphenyl)-4-(trifluoromethyl)pyrazole-3-carboxamide] it was 100 to 1000 nM; in that of `Cc1cc(NC(=O)c2c(C(F)(F)F)c(C)nn2CC2CCC(F)(F)CC2)ccn1` [SC-252, 1-((4,4-difluorocyclohexyl)methyl)-3-methyl-N-(2-methylpyridin-4-yl)-4-(trifluoromethyl)-1H-pyrazole-5-carboxamide], 100 to 1000 nM.
Consider `Cc1nn(CC2CCCCC2)c(C(=O)Nc2cc[nH]c(=O)c2)c1C` [SC-07, 1-(cyclohexylmethyl)-3,4-dimethyl-N-(2-oxo-1,2-dihydropyridin-4-yl)-1H-pyrazole-5-carboxamide], for which the concentration for half-maximal inhibition (IC50) fell in the range of 1000 to 10000 nM.
Regarding `NC(=O)c1cc(NC(=O)c2c(OCC(F)(F)F)c(C3CC3)nn2CC2CCC(F)(F)C2)ccn1` (centres unmarked) [SC-298, 4-(3-cyclopropyl-1-((3,3-difluorocyclopentyl)methyl)-4-(2,2,2-trifluoroethoxy)-1H-pyrazole-5-carboxamido)picolinamide], the concentration for half-maximal inhibition (IC50) was 1000 to 10000 nM.
In the case of `C[S+]([O-])c1cc(NC(=O)c2c(C(F)(F)F)c(C(C)(F)F)nn2CC2CC(F)(F)C2)ccn1` (centres unmarked) [SC-303, 1-((3,3-difluorocyclobutyl)methyl)-3-(1,1-difluoroethyl)-N-(2-(methylsulfinyl)pyridin-4-yl)-4-(trifluoromethyl)-1H-pyrazole-5-carboxamide] it was at most 100 nM; in that of `Cc1c(C(C)(F)F)nn(C[C@@H]2CC[C@H]2C(F)(F)F)c1C(=O)Nc1ccnc(C(N)=O)c1` (single isomer, unassigned) [SC-315a], at most 100 nM.
Next, `Cc1c(C(C)(F)F)nn(C[C@H]2CCC(F)(F)C2)c1C(=O)Nc1cccc(S(N)(=O)=O)c1` (single isomer, unassigned) [SC-296b]: at most 100 nM; `NC(=O)c1cc(NC(=O)c2c(C(F)(F)F)c(C3CC3)nn2CC2CCCCO2)ccc1F` (centres unmarked) [SC-140, N-(3-carbamoyl-4-fluorophenyl)-3-cyclopropyl-1-((tetrahydro-2H-pyran-2-yl)methyl)-4-(trifluoromethyl)-1H-pyrazole-5-carboxamide]: at most 100 nM; `Cc1c(C(C)(F)F)nn(CC2(C)CCC(F)(F)C2)c1C(=O)Nc1ccnc(S(C)(=O)=O)c1` (stereo not drawn) [SC-213, 1-((3,3-difluoro-1-methyleyclopentyl)methyl)-3-(1,l-difluoroethyl)-4-methyl-N-(2-(methylsulfonyl)pyridin-4-yl)-1H-pyrazole-5-carboxamide]: at most 100 nM.
In the case of `Cc1c(OC(C)(F)F)nn(CC2CC(F)(F)C2)c1C(=O)Nc1ccnc(C(N)=O)c1` [SC-309, 4-(1-((3,3-difluorocyclobutyl)methyl)-3-(1,1-difluoroethoxy)-4-methyl-1H-pyrazole-5-carboxamido)picolinamide] it was 1000 to 10000 nM; in that of `NC(=O)c1cc(NC(=O)c2c(C(F)(F)F)c(C(F)F)nn2CC2CC(F)(F)C2)ccn1` [SC-324, 4-(1-((3,3-difluorocyclobutyl)methyl)-3-(difluoromethyl)-4-(trifluoromethyl)-1H-pyrazole-5-carboxamido)picolinamide], at most 100 nM; in that of `Cc1c(C(C)(F)F)nn(CC2(C)CCCCO2)c1C(=O)Nc1ccnc(S(N)(=O)=O)c1` (single isomer, unassigned) [SC-312a], 100 to 1000 nM.
For the compound `Cc1c(C(C)(F)F)nn(C[C@@H]2C[C@@H]2C(F)F)c1C(=O)Nc1ccnc(C(N)=O)c1` (relative stereo) [SC-206, 4-(3-(1,1-difluoroethyl)-1-((2-(difluoromethyl)cyclopropyl)methyl)-4-methyl-lH-pyrazole-5-carboxamido)picolinamide], the 50% inhibitory concentration (IC50) was 100 to 1000 nM.
As to `CS(=O)(=O)c1cc(NC(=O)c2c(C(F)(F)F)c(C3CC3)nn2C[C@@H]2CCO[C@@H]2C(F)(F)F)ccn1` (single isomer, unassigned) [SC-150b], the 50% inhibitory concentration (IC50) is at most 100 nM.
